According to US9340590B2 (priority 2011, dated 2016):
Positions of bridges follow the written chain, without caps; N, C: chain ends. Non-standard residues stand in square brackets, D forms with d. Residues, ends and D or L forms follow the SMILES beside them. Orn = NCCC[C@H](N)C(=O)O; Pra = C#CC[C@H](N)C(=O)O

Assays:
hNav1.5 = hNav1.5 (Homo sapiens, UniProt Q14524); assay: cell-based
hNav1.7 = hNav1.7 (Homo sapiens, UniProt Q15858); assay: cell-based; conditions: Nav1.7 Use IC50
Chain of hNav1.7 (Q15858 whole entry, looked up): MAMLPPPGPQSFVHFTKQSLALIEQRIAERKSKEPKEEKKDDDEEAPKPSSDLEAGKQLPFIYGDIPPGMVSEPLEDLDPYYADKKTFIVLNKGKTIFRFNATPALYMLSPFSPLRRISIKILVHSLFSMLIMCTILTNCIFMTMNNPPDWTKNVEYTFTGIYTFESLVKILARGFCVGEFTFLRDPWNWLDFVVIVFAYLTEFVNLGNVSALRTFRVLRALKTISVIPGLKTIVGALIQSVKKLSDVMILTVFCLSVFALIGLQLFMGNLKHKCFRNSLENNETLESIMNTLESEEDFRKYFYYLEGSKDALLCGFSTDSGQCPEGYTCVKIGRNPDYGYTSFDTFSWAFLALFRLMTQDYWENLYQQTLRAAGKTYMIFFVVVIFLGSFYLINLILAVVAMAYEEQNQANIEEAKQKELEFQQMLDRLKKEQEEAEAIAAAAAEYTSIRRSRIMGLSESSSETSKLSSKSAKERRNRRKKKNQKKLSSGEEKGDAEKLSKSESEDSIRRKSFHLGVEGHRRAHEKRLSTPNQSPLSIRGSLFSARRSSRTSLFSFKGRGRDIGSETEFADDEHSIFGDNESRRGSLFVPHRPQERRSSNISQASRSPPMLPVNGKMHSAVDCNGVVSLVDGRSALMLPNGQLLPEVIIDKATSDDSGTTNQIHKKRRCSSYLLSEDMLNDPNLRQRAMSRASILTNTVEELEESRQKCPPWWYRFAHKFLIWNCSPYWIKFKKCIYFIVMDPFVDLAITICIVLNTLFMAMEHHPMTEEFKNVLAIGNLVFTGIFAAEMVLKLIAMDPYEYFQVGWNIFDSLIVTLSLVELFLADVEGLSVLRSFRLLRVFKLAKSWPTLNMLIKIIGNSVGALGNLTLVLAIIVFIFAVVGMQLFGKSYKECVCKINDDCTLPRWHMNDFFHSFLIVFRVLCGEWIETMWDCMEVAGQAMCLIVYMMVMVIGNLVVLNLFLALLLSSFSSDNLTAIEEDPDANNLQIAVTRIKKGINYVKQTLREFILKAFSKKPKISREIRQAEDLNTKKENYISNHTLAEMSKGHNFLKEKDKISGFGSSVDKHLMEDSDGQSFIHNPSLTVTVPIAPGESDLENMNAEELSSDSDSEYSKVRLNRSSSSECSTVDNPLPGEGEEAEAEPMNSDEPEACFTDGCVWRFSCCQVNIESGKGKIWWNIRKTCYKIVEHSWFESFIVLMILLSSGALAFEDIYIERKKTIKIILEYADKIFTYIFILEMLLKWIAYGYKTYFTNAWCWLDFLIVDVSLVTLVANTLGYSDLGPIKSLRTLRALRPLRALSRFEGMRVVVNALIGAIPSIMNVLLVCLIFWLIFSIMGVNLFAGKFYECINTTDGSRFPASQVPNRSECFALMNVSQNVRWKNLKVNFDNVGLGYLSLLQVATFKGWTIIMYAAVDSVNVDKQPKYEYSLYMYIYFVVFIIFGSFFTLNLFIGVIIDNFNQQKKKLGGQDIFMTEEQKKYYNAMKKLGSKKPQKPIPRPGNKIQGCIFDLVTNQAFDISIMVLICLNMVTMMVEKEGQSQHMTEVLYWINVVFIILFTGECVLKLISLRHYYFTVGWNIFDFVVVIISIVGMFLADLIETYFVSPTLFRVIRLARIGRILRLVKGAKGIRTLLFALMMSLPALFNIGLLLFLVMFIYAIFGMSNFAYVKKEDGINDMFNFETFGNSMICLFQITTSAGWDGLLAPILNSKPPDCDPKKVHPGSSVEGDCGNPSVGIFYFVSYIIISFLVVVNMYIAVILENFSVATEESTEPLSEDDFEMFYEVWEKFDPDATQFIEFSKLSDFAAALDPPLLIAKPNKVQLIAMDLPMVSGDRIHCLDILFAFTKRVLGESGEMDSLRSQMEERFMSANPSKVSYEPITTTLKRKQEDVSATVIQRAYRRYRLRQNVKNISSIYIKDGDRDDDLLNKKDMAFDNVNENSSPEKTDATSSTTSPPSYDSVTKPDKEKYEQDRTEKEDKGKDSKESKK

Chain of hNav1.5 (Q14524 whole entry, looked up): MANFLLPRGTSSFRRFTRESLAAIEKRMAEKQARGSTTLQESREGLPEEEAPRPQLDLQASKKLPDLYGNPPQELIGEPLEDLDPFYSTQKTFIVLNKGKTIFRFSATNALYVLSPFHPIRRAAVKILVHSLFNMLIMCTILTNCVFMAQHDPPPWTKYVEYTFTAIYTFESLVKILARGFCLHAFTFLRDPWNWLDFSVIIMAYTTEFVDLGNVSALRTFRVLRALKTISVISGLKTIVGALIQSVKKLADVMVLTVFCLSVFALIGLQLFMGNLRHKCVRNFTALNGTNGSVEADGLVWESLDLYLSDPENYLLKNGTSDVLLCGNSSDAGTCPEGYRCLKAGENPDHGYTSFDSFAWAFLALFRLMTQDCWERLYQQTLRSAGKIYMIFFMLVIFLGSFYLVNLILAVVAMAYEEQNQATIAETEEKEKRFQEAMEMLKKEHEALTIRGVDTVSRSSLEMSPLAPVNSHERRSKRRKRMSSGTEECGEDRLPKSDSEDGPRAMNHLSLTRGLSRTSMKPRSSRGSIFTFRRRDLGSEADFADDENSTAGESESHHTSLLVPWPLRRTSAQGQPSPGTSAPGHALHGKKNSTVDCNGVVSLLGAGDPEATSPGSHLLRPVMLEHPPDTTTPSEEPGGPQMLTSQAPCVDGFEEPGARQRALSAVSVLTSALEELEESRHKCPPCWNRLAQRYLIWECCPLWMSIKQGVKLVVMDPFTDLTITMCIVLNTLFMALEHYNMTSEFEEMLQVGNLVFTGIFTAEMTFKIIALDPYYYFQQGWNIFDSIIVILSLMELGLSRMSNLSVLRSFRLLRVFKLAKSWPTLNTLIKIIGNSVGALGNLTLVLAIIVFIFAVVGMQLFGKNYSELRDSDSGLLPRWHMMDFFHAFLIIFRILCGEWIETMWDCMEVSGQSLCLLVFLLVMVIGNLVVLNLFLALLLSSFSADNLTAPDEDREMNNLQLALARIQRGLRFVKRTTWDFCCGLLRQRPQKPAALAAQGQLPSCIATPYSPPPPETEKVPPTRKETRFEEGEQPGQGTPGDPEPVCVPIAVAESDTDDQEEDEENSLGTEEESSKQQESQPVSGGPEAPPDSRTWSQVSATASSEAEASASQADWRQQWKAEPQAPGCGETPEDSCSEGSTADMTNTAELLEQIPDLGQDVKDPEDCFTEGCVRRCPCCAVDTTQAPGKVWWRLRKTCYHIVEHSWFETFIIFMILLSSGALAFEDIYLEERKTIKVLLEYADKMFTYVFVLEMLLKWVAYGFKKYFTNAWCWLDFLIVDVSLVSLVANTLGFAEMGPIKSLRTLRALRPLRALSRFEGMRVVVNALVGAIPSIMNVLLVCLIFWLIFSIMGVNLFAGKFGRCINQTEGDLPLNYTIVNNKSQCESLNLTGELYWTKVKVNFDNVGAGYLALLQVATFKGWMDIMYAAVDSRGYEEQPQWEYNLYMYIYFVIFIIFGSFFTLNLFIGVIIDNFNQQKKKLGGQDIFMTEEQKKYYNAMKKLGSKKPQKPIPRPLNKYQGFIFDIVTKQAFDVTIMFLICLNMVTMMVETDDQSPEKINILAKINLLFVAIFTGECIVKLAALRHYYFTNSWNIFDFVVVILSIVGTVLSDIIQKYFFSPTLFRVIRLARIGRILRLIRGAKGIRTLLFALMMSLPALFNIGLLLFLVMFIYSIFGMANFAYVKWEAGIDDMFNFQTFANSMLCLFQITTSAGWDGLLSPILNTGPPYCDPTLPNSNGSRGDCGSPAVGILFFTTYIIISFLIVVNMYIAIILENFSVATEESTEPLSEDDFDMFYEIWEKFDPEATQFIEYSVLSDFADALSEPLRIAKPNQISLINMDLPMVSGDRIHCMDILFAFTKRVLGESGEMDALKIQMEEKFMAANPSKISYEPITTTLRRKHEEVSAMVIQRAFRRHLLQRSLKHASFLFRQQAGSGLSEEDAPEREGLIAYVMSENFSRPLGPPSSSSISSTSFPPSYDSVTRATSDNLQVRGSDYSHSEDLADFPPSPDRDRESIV

SMILES	IC50 (hNav1.5)	IC50 (hNav1.7)
CC[C@H](C)[C@@H]1NC(=O)[C@@H]2CSSC[C@@H]3NC(=O)[C@H](C(C)C)NC(=O)[C@H](CC(C)C)NC(=O)[C@H](CC(N)=O)NC(=O)[C@@H]4CCCN4C(=O)[C@H](CCCNC(=N)N)NC(=O)[C@H](CSSC[C@H](NC(=O)[C@@H](N)CC(=O)O)C(=O)N[C@@H](CC(C)C)C(=O)NCC(=O)N[C@@H](C)C(=O)N[C@@H](CCSC)C(=O)N[C@@H](CCCNC(=N)N)C(=O)N[C@@H](CCCCN)C(=O)N2)NC(=O)[C@H](CSSC[C@@H](C(=O)N[C@@H](CCCCN)C(=O)N[C@@H](Cc2ccc(O)cc2)C(=O)N[C@H](C(=O)N[C@@H](Cc2ccccc2)C(N)=O)C(C)C)NC(=O)[C@H](Cc2c[nH]c4ccccc24)NC(=O)[C@H](Cc2c[nH]cn2)NC(=O)[C@H](Cc2c[nH]cn2)NC(=O)[C@H]([C@@H](C)O)NC(=O)[C@H](CCCNC(=N)N)NC(=O)[C@H](CO)NC3=O)NC(=O)[C@H](CCCCN)NC(=O)[C@H](CC(=O)O)NC(=O)[C@H](CC(N)=O)NC(=O)[C@H](CC(=O)O)NC(=O)[C@@H]2CCCN2C1=O [[Ala5;His28]GpTx-1(1-34)] (H-DCLGAMRKCIPDNDKCCRPNLVCSRTHHWCKYVF-NH2; disulfide 2-17, 9-23, 16-30)	> 10000 nM	26 nM
C#CC[C@@H]1NC(=O)[C@H](CC(=O)O)NC(=O)[C@@H]2CCCN2C(=O)[C@H]([C@@H](C)CC)NC(=O)[C@@H]2CSSC[C@@H]3NC(=O)[C@H](C(C)C)NC(=O)[C@H](CC(C)C)NC(=O)[C@H](CC(N)=O)NC(=O)[C@@H]4CCCN4C(=O)[C@H](CCCNC(=N)N)NC(=O)[C@H](CSSC[C@H](NC(=O)[C@@H](N)CC(=O)O)C(=O)N[C@@H](CC(C)C)C(=O)NCC(=O)N[C@@H](C)C(=O)N[C@@H](CC(C)C)C(=O)N[C@@H](CCCNC(=N)N)C(=O)N[C@@H](CCCCN)C(=O)N2)NC(=O)[C@H](CSSC[C@@H](C(=O)N[C@@H](CCCCN)C(=O)N[C@@H](Cc2ccc(O)cc2)C(=O)N[C@H](C(=O)N[C@@H](Cc2ccccc2)C(N)=O)C(C)C)NC(=O)[C@H](Cc2c[nH]c4ccccc24)NC(=O)[C@H](CCCNC(=N)N)NC(=O)[C@H](Cc2c[nH]cn2)NC(=O)[C@H](CC(C)C)NC(=O)[C@H](CCCNC(=N)N)NC(=O)[C@H](CO)NC3=O)NC(=O)[C@H](CCCCN)NC(=O)[C@H](CC(=O)O)NC1=O [[Ala5;Leu6,26;Pra13;Arg28]GpTx-1(1-34)] (H-DCLGALRKCIPD[Pra]DKCCRPNLVCSRLHRWCKYVF-NH2; disulfide 2-17, 9-23, 16-30)	> 10000 nM	9 nM
CC(C)C[C@@H]1NC(=O)[C@H](C)NC(=O)CNC(=O)[C@H](CC(C)C)NC(=O)[C@@H](NC(=O)[C@@H](N)CC(=O)O)CSSC[C@@H]2NC(=O)[C@@H]3CSSC[C@@H](C(=O)N[C@@H](CCCCN)C(=O)N[C@@H](Cc4ccc(O)cc4)C(=O)N[C@H](C(=O)N[C@@H](Cc4ccccc4)C(N)=O)C(C)C)NC(=O)[C@H](Cc4c[nH]c5ccccc45)NC(=O)[C@H](CCCCN)NC(=O)[C@H](Cc4c[nH]cn4)NC(=O)[C@H]([C@@H](C)O)NC(=O)[C@H](CCCNC(=N)N)NC(=O)[C@H](CO)NC(=O)[C@H](CSSC[C@H](NC(=O)[C@H](CCCCN)NC(=O)[C@H](CCCNC(=N)N)NC1=O)C(=O)N[C@@H](CCC(=O)O)C(=O)N1CCC[C@H]1C(=O)N[C@@H](CC(=O)O)C(=O)N[C@@H](CC(N)=O)C(=O)N[C@@H](CC(=O)O)C(=O)N[C@@H](CCCCN)C(=O)N3)NC(=O)[C@H](C(C)C)NC(=O)[C@H](CC(C)C)NC(=O)[C@H](CC(N)=O)NC(=O)[C@@H]1CCCN1C(=O)[C@H](CCCNC(=N)N)NC2=O [[Ala5;Leu6;Glu10]GpTx-1(1-34)]	> 10000 nM	30 nM
CC[C@H](C)[C@@H]1NC(=O)[C@@H]2CSSC[C@@H]3NC(=O)[C@H](C(C)C)NC(=O)[C@H](CC(C)C)NC(=O)[C@H](CC(N)=O)NC(=O)[C@@H]4CCCN4C(=O)[C@H](CCCNC(=N)N)NC(=O)[C@H](CSSC[C@H](NC(=O)[C@@H](N)CC(=O)O)C(=O)N[C@@H](CC(C)C)C(=O)NCC(=O)N[C@@H](C)C(=O)N[C@@H](CC(C)C)C(=O)N[C@@H](CCCNC(=N)N)C(=O)N[C@@H](CCCCN)C(=O)N2)NC(=O)[C@H](CSSC[C@@H](C(=O)N[C@@H](CCCCN)C(=O)N[C@@H](Cc2ccc(O)cc2)C(=O)N[C@H](C(=O)N[C@@H](Cc2ccccc2)C(N)=O)C(C)C)NC(=O)[C@H](Cc2c[nH]c4ccccc24)NC(=O)[C@H](CCCCN)NC(=O)[C@H](Cc2c[nH]cn2)NC(=O)[C@H]([C@@H](C)O)NC(=O)[C@H](CCCNC(=N)N)NC(=O)[C@H](CO)NC3=O)NC(=O)[C@H](CCCCN)NC(=O)[C@H](CC(=O)O)NC(=O)[C@H](CC(N)=O)NC(=O)[C@H](CCC(=O)O)NC(=O)[C@@H]2CCCN2C1=O [[Ala5;Leu6;Glu12]GpTx-1(1-34)]	> 10000 nM	21 nM
CC[C@H](C)[C@@H]1NC(=O)[C@@H]2CSSC[C@@H]3NC(=O)[C@H](C(C)C)NC(=O)[C@H](CC(C)C)NC(=O)[C@H](CC(N)=O)NC(=O)[C@@H]4CCCN4C(=O)[C@H](CCCNC(=N)N)NC(=O)[C@H](CSSC[C@H](NC(=O)[C@@H](N)CC(=O)O)C(=O)N[C@@H](CC(C)C)C(=O)NCC(=O)N[C@@H](C)C(=O)N[C@@H](CCSC)C(=O)N[C@@H](CCCNC(=N)N)C(=O)N[C@@H](CCCCN)C(=O)N2)NC(=O)[C@H](CSSC[C@@H](C(=O)N[C@@H](CCCCN)C(=O)N[C@@H](Cc2ccc(O)cc2)C(=O)N[C@H](C(=O)N[C@@H](Cc2ccccc2)C(N)=O)C(C)C)NC(=O)[C@H](Cc2c[nH]c4ccccc24)NC(=O)[C@H](CCCN)NC(=O)[C@H](Cc2c[nH]cn2)NC(=O)[C@H]([C@@H](C)O)NC(=O)[C@H](CCCNC(=N)N)NC(=O)[C@H](CO)NC3=O)NC(=O)[C@H](CCCCN)NC(=O)[C@H](CC(=O)O)NC(=O)[C@H](CC(N)=O)NC(=O)[C@H](CC(=O)O)NC(=O)[C@@H]2CCCN2C1=O [[Ala5;Orn28]GpTx-1(1-34)] (H-DCLGAMRKCIPDNDKCCRPNLVCSRTH[Orn]WCKYVF-NH2; disulfide 2-17, 9-23, 16-30)	> 10000 nM	59 nM
CC(C)C[C@@H]1NC(=O)[C@@H](NC(=O)[C@@H](N)CC(=O)O)CSSC[C@@H]2NC(=O)[C@@H]3CSSC[C@@H](C(=O)N[C@@H](CCCCN)C(=O)N[C@@H](Cc4ccc(O)cc4)C(=O)N[C@H](C(=O)N[C@@H](Cc4ccccc4)C(N)=O)C(C)C)NC(=O)[C@H](Cc4c[nH]c5ccccc45)NC(=O)[C@H](CCCCN)NC(=O)[C@H](Cc4c[nH]cn4)NC(=O)[C@H]([C@@H](C)O)NC(=O)[C@H](CCCNC(=N)N)NC(=O)[C@H](CO)NC(=O)[C@H](CSSC[C@H](NC(=O)[C@H](CCCCN)NC(=O)[C@H](CCCNC(=N)N)NC(=O)[C@H](Cc4ccccc4)NC(=O)[C@H](C)NC(=O)CNC1=O)C(=O)N[C@@H](CC(=O)O)C(=O)N1CCC[C@H]1C(=O)N[C@@H](CC(=O)O)C(=O)N[C@@H](CC(N)=O)C(=O)N[C@@H](CC(=O)O)C(=O)N[C@@H](CCCCN)C(=O)N3)NC(=O)[C@H](C(C)C)NC(=O)[C@H](CC(C)C)NC(=O)[C@H](CC(N)=O)NC(=O)[C@@H]1CCCN1C(=O)[C@H](CCCNC(=N)N)NC2=O [[Ala5;Phe6;Asp10]GpTx-1(1-34)] (H-DCLGAFRKCDPDNDKCCRPNLVCSRTHKWCKYVF-NH2; disulfide 2-17, 9-23, 16-30)	> 10000 nM	40 nM
CC(C)C[C@@H]1NC(=O)[C@@H](NC(=O)[C@@H](N)CC(=O)O)CSSC[C@@H]2NC(=O)[C@@H]3CSSC[C@@H](C(=O)N[C@@H](CCCCN)C(=O)N[C@@H](Cc4ccc(O)cc4)C(=O)N[C@H](C(=O)N[C@@H](Cc4ccccc4)C(N)=O)C(C)C)NC(=O)[C@H](Cc4c[nH]c5ccccc45)NC(=O)[C@H](CCCCN)NC(=O)[C@H](Cc4c[nH]cn4)NC(=O)[C@H]([C@@H](C)O)NC(=O)[C@H](CCCNC(=N)N)NC(=O)[C@H](CO)NC(=O)[C@H](CSSC[C@H](NC(=O)[C@H](CCCCN)NC(=O)[C@H](CCCNC(=N)N)NC(=O)[C@H](Cc4ccccc4)NC(=O)[C@H](C)NC(=O)CNC1=O)C(=O)N[C@@H](CCC(=O)O)C(=O)N1CCC[C@H]1C(=O)N[C@@H](CC(=O)O)C(=O)N[C@@H](CC(N)=O)C(=O)N[C@@H](CC(=O)O)C(=O)N[C@@H](CCCCN)C(=O)N3)NC(=O)[C@H](C(C)C)NC(=O)[C@H](CC(C)C)NC(=O)[C@H](CC(N)=O)NC(=O)[C@@H]1CCCN1C(=O)[C@H](CCCNC(=N)N)NC2=O [[Ala5;Phe6;Glu10]GpTx-1(1-34)] (H-DCLGAFRKCEPDNDKCCRPNLVCSRTHKWCKYVF-NH2; disulfide 2-17, 9-23, 16-30)	> 10000 nM	79 nM
CC[C@H](C)[C@@H]1NC(=O)[C@@H]2CSSC[C@@H]3NC(=O)[C@H](C(C)C)NC(=O)[C@H](CC(C)C)NC(=O)[C@H](CC(N)=O)NC(=O)[C@@H]4CCCN4C(=O)[C@H](CCCNC(=N)N)NC(=O)[C@H](CSSC[C@H](NC(=O)[C@@H](N)CC(=O)O)C(=O)N[C@@H](CC(C)C)C(=O)NCC(=O)N[C@@H](C)C(=O)N[C@@H](Cc4ccccc4)C(=O)N[C@@H](CCCNC(=N)N)C(=O)N[C@@H](CCCCN)C(=O)N2)NC(=O)[C@H](CSSC[C@@H](C(=O)N[C@@H](CCCCN)C(=O)N[C@@H](Cc2ccc(O)cc2)C(=O)N[C@H](C(=O)N[C@@H](Cc2ccccc2)C(N)=O)C(C)C)NC(=O)[C@H](Cc2c[nH]c4ccccc24)NC(=O)[C@H](CCCCN)NC(=O)[C@H](Cc2c[nH]cn2)NC(=O)[C@H]([C@@H](C)O)NC(=O)[C@H](CCCNC(=N)N)NC(=O)[C@H](CO)NC3=O)NC(=O)[C@H](CCCCN)NC(=O)[C@H](CC(=O)O)NC(=O)[C@H](CC(N)=O)NC(=O)[C@H](CCC(=O)O)NC(=O)[C@@H]2CCCN2C1=O [[Ala5;Phe6;Glu12]GpTx-1(1-34)] (H-DCLGAFRKCIPENDKCCRPNLVCSRTHKWCKYVF-NH2; disulfide 2-17, 9-23, 16-30)	> 10000 nM	28 nM
